Data as given in US20110082130A1 (LIGAND PHARMACEUTICALS, INC., priority 2006, published 2011).

biological target: T1, chimeric human H3 receptor (Homo sapiens, UniProt Q9Y5N1); experiment: Chimeric human H3 receptor GTP binding assay (agonist-stimulated GTP-gamma35S binding, Example 7); type: biochemical; settings: Table I; P2 membranes of Sf9 cells, 1 μM histamine as agonist, Ki from IC50 by Cheng-Prusoff
T1 construct: made in house; host or cells: Sf9 insect cells (baculovirus); P2 membrane preparation
Outline: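 Sf9 membranes co-expressing chimeric human H3 receptor and heterotrimeric G-protein, 35 μg/tube, in pH 7.4 Tris buffer with 10 μM GDP. Test compounds (10^−10–10^−6 M) competed against 1 μM histamine, […] GTP-gamma35S, 60 min at room temperature. Filter-bound radioactivity counted; IC50 converted to Ki by Cheng-Prusoff. Agonism/inverse agonism tested without histamine (EC50).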

T1 sequence (Q9Y5N1 with tags, fused parts or gaps): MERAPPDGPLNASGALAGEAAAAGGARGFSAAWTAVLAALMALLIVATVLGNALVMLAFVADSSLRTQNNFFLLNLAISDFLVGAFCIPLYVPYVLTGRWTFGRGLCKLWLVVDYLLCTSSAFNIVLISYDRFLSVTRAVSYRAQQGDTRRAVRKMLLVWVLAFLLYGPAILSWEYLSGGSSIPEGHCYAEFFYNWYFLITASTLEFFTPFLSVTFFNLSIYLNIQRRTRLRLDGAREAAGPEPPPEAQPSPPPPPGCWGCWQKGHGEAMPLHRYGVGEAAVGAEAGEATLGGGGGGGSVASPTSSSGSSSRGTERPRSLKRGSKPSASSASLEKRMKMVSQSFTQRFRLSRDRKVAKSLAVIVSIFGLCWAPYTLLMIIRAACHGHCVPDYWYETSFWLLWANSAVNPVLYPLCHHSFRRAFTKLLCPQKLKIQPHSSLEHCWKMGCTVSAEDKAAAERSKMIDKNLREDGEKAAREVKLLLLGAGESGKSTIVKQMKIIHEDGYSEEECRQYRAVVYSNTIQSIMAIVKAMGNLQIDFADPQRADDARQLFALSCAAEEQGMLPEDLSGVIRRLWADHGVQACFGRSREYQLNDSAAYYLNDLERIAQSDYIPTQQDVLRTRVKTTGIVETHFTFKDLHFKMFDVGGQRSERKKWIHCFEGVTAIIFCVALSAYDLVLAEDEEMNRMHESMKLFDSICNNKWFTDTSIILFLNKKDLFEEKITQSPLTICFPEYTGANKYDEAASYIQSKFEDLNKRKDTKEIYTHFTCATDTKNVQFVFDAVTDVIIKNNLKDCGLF

Ki, < 1000 nM:
COc1cc2c(cc1OC)CN(CC(=O)N1CCN(C3CCCCC3)CC1)CC2 [Compound 50, 2-[2-(4-cyclohexylpiperazin-1-yl)-2-oxoethyl]-6,7-dimethoxy-1,2,3,4-tetrahydroisoquinoline]
CC(=O)c1ccc(-c2ccc3c(c2)CCN(CC(=O)N2CCN(C4CCC4)CC2)C3)cc1 [Compound 67, 1-(4-{2-[2-(4-cyclobutylpiperazin-1-yl)-2-oxoethyl]-1,2,3,4-tetrahydroisoquinolin-6-yl}phenyl)ethanone]

same assay, conditions: Table II "Ki", symbol *; assay of Example 7

Ki, < 1000 nM:
CN(C)Cc1ccc(-c2ccc3c(c2)CCN(CC(=O)N2CCN(C4CCC4)CC2)C3)cc1 [Compound 642, 1-(4-{2-[2-(4-cyclobutylpiperazin-1-yl)-2-oxoethyl]-1,2,3,4-tetrahydroisoquinolin-6-yl}phenyl)-N,N-dimethylmethanamine]
COc1ccc(-c2ccc3c(c2)CCN(CC(=O)N2CCN(C(C)C)CC2)C3)cc1OC [Compound 527, 6-(3,4-dimethoxyphenyl)-2-[2-(4-isopropylpiperazin-1-yl)-2-oxoethyl]-1,2,3,4-tetrahydroisoquinoline]
COCCC1CCCN(c2ccc3c(n2)CCN(CC(=O)N2CCN(C4CCC4)CC2)C3)C1 (stereo not drawn) [Compound 674, 6-[2-(4-cyclobutylpiperazin-1-yl)-2-oxoethyl]-2-[3-(2-methoxyethyl)piperidin-1-yl]-5,6,7,8-tetrahydro-1,6-naphthyridine]
COCc1ccc(-c2ccc3c(c2)CCN(CC(=O)N2CCN(C4CCC4)CC2)C3)nc1 [Compound 646, 2-[2-(4-cyclobutylpiperazin-1-yl)-2-oxoethyl]-6-[5-(methoxymethyl)pyridin-2-yl]-1,2,3,4-tetrahydroisoquinoline]
O=C(CN1CCc2cc(-c3ccc4ccccc4n3)ccc2C1)N1CCN(C2CCC2)CC1 [Compound 634, 2-{2-[2-(4-cyclobutylpiperazin-1-yl)-2-oxoethyl]-1,2,3,4-tetrahydroisoquinolin-6-yl}quinoline]

same assay, conditions: Table II; "*" = Ki in assay of Example 7 less than 1 micromolar

Ki, < 1000 nM:
O=C(CN1CCc2nc(-n3cccn3)ncc2C1)N1CCN(C2CCC2)CC1 [Compound 275, 6-[2-(4-cyclobutylpiperazin-1-yl)-2-oxoethyl]-2-(1H-pyrazol-1-yl)-5,6,7,8-tetrahydropyrido[4,3-d]pyrimidine]
CC(C)N1CCN(C(=O)CN2CCc3cc(-c4cccnn4)ccc3C2)CC1 [Compound 164, 2-[2-(4-isopropylpiperazin-1-yl)-2-oxoethyl]-6-pyridazin-3-yl-1,2,3,4-tetrahydroisoquinoline]
O=C(CN1CCc2cc(-n3ncccc3=O)ccc2C1)N1CCN(C2CCC2)CC1 [Compound 193, 2-{2-[2-(4-cyclobutylpiperazin-1-yl)-2-oxoethyl]-1,2,3,4-tetrahydroisoquinolin-6-yl}pyridazin-3(2H)-one]
COc1ccc(-n2cc3c(n2)CCN(CC(=O)N2CCN(C4CCC4)CC2)C3)cc1 [Compound 238, 5-[2-(4-cyclobutylpiperazin-1-yl)-2-oxoethyl]-2-(4-methoxyphenyl)-4,5,6,7-tetrahydro-2H-pyrazolo[4,3-c]pyridine]
CCC1CCC[C@H]2CN(C(=O)CN3CCc4cc(-n5cccn5)ccc4C3)CCN12 (stereo in doubt) [Compound 167, 6-ethyl-2-{[6-(1H-pyrazol-1-yl)-3,4-dihydroisoquinolin-2(1H)-yl]acetyl}octahydro-2H-pyrido[1,2-a]pyrazine]
CC(C)(C)c1ncc2c(n1)CCN(CC(=O)N1CCN(C3CCC3)CC1)C2 [Compound 277, 2-tert-butyl-6-[2-(4-cyclobutylpiperazin-1-yl)-2-oxoethyl]-5,6,7,8-tetrahydropyrido[4,3-d]pyrimidine]
CC1CCCN1C(=O)c1ccc2c(c1)CCN(CC(=O)N1CCN(C3CCC3)CC1)C2 (stereo not drawn) [Compound 87, 2-[2-(4-cyclobutylpiperazin-1-yl)-2-oxoethyl]-6-[(2-methylpyrrolidin-1-yl)carbonyl]-1,2,3,4-tetrahydroisoquinoline]
O=C(CN1CCc2cn(-c3cncnc3)nc2C1)N1CCN(C2CCC2)CC1 [Compound 124, 6-[2-(4-cyclobutylpiperazin-1-yl)-2-oxoethyl]-2-pyrimidin-5-yl-4,5,6,7-tetrahydro-2H-pyrazolo[3,4-c]pyridine]
COCCN(C)c1ccc2c(n1)CCN(CC(=O)N1CCN(C3CCC3)CC1)C2 [Compound 184, 6-[2-(4-cyclobutylpiperazin-1-yl)-2-oxoethyl]-N-(2-methoxyethyl)-N-methyl-5,6,7,8-tetrahydro-1,6-naphthyridin-2-amine]
O=C(CN1CCc2cc(OCc3ccccc3)ccc2C1)N1CCN(C2CCC2)CC1 [Compound 194, 6-(benzyloxy)-2-[2-(4-cyclobutylpiperazin-1-yl)-2-oxoethyl]-1,2,3,4-tetrahydroisoquinoline]
N#Cc1nc2c(s1)CN(CC(=O)N1CCN(C3CCC3)CC1)CC2 [Compound 102, 5-[2-(4-cyclobutylpiperazin-1-yl)-2-oxoethyl]-4,5,6,7-tetrahydro[1,3]thiazolo [5,4-c]pyridine-2-carbonitrile]
O=C(CN1CCc2nc(N3CCCCC3)ncc2C1)N1CCN(C2CCC2)CC1 [Compound 155, 6-[2-(4-cyclobutylpiperazin-1-yl)-2-oxoethyl]-2-piperidin-1-yl-5,6,7,8-tetrahydropyrido[4,3-d]pyrimidine]
COc1ccc(-n2cc3c(n2)CCN(CC(=O)N2CCN(C4CCC4)CC2)C3)nn1 [Compound 199, 5-[2-(4-cyclobutylpiperazin-1-yl)-2-oxoethyl]-2-(6-methoxypyridazin-3-yl)-4,5,6,7-tetrahydro-2H-pyrazolo[4,3-c]pyridine]
O=C(CN1CCc2cc(-c3nccs3)ccc2C1)N1CCN(C2CCC2)CC1 [Compound 120, 2-[2-(4-cyclobutylpiperazin-1-yl)-2-oxoethyl]-6-(1,3-thiazol-2-yl)-1,2,3,4-tetrahydroisoquinoline]
CC1CN(c2ccc3c(n2)CCN(CC(=O)N2CCN(C4CCC4)CC2)C3)CC(C)O1 (stereo not drawn) [Compound 182, 6-[2-(4-cyclobutylpiperazin-1-yl)-2-oxoethyl]-2-(2,6-dimethylmorpholin-4-yl)-5,6,7,8-tetrahydro-1,6-naphthyridine]
O=C(CN1CCc2cc(N3CCOCC3)nnc2C1)N1CCN(C2CCC2)CC1 [Compound 220, 7-[2-(4-cyclobutylpiperazin-1-yl)-2-oxoethyl]-3-morpholin-4-yl-5,6,7,8-tetrahydropyrido[3,4-c]pyridazine]
Cn1cc(-c2ccc3c(c2)CCN(CC(=O)N2CCN(C4CCC4)CC2)C3)cn1 [Compound 127, 2-[2-(4-cyclobutylpiperazin-1-yl)-2-oxoethyl]-6-(1-methyl-1H-pyrazol-4-yl)1,2,3,4-tetrahydroisoquinoline]
CC1CCCC1N1CCN(C(=O)CN2CCc3nc(N4CCOCC4)ncc3C2)CC1 (stereo not drawn) [Compound 205, 6-{2-[4-(2-methylcyclopentyl)piperazin-1-yl]-2-oxoethyl}-2-morpholin-4-yl-5,6,7,8-tetrahydropyrido[4,3-d]pyrimidine]
Cn1cc(-n2cc3c(n2)CCN(CC(=O)N2CCN(C4CCC4)CC2)C3)ccc1=O [Compound 262, 5-{5-[2-(4-cyclobutylpiperazin-1-yl)-2-oxoethyl]-4,5,6,7-tetrahydro-2H-pyrazolo[4,3-c]pyridin-2-yl}-1-methylpyridin-2(1H)-one]
O=C(CN1CCc2cc(-n3cccn3)ccc2C1)N1CCN(C2CCC2)CC1 [Compound 122, 2-[2-(4-cyclobutylpiperazin-1-yl)-2-oxoethyl]-6-(1H-pyrazol-1-yl)-1,2,3,4-tetrahydroisoquinoline]
O=C(CN1CCc2[nH]c(=O)ccc2C1)N1CCN(C2CCC2)CC1 [Compound 134, 6-[2-(4-cyclobutylpiperazin-1-yl)-2-oxoethyl]-5,6,7,8-tetrahydro-1,6-naphthyridin-2(1H)-one]

same assay, conditions: assay of Example 7; "*" in Ki of Table II

Ki, < 1000 nM:
COc1ccc(C)cc1-c1nc2c(s1)CN(CC(=O)N1CCN(C3CCC3)CC1)CC2 [Compound 344, 5-[2-(4-cyclobutylpiperazin-1-yl)-2-oxoethyl]-2-(2-methoxy-5-methylphenyl)-4,5,6,7-tetrahydro[1,3]thiazolo [5,4-c]pyridine]
O=C(CN1CCc2nc(-c3cc(F)ccc3F)sc2C1)N1CCN(C2CCC2)CC1 [Compound 347, 5-[2-(4-cyclobutylpiperazin-1-yl)-2-oxoethyl]-2-(2,5-difluorophenyl)-4,5,6,7-tetrahydro[1,3]thiazolo [5,4-c]pyridine]
COc1ccc(-c2ccc(-c3nc4c(s3)CN(CC(=O)N3CCN(C5CCC5)CC3)CC4)cc2)cc1 [Compound 321, 5-[2-(4-cyclobutylpiperazin-1-yl)-2-oxoethyl]-2-(4′-methoxybiphenyl-4-yl)-4,5,6,7-tetrahydro[1,3]thiazolo [5,4-c]pyridine]
O=C(CN1CCc2nc(-c3ccc(F)c(Cl)c3)sc2C1)N1CCN(C2CCC2)CC1 [Compound 346, 2-(3-chloro-4-fluorophenyl)-5-[2-(4-cyclobutylpiperazin-1-yl)-2-oxoethyl]-4,5,6,7-tetrahydro[1,3]thiazolo [5,4-c]pyridine]
CC(C)Oc1cccc(-c2nc3c(s2)CN(CC(=O)N2CCN(C4CCC4)CC2)CC3)c1 [Compound 325, 5-[2-(4-cyclobutylpiperazin-1-yl)-2-oxoethyl]-2-(3-isopropoxyphenyl)-4,5,6,7-tetrahydro[1,3]thiazolo [5,4-c]pyridine]
